Reference: patent US10123985B2, “Therapeutic strategies for treating mitochondrial disorders” (Whitehead Institute for Biomedical Research, priority 2015, dated 2018)
“Also recorded” adds a separate entry of the source.

Experiments:
143B CytB cells [1] = test: GC-MS of AKB and AHB concentration in the media during proliferation assay; assay type: cell-based; conditions: media of 143B CytB cells proliferating with AKB
Experimental: FIG. 1. Cytochrome B mutant 143B cybrid cells are auxotrophic for oxidized substrates that can regenerate NAD^+. (A) Proliferation rate of 143B CytB cells was determined in the presence or absence of pyruvate. (left) Cells were normalized to cell number at t=0 when media conditions were applied. (B) A major fate of pyruvate is as a substrate of lactate dehydrogenase (LDH) where it accepts electrons from NADH to produce NAD^+ and lactate. (C) α-Ketobutyrate (AKB) can act as an alternative electron acceptor substrate for LDH, yielding NAD^+ α-hydroxybutyrate (AHB). (D) Proliferation rate for 143B CytB cells in the presence or absence of AKB was determined as in (A). (E) Intracellular ratio of NAD^+/NADH was determined in 143B CytB cells in untreated media or in the presence of pyruvate (Pyr) or AKB. (F) The concentration of AKB and AHB in the media was determined by GC-MS analysis for each day of a proliferation assay of 143B CytB cells in the presence of AKB as in (D). […]
Given the chemical structure differences between AKB and pyruvate, they cannot share direct carbon-fates, thus we reasoned that AKB is likely being used predominantly as an electron acceptor and not as a carbon substrate in metabolic pathways. To verify this we measured the consumption rate of AKB and the excretion rate of the reduced product, α-hydroxybutyrate (AHB), formed upon NAD^+ regeneration (FIG. 1C). […]

[2] = tested on: lactate dehydrogenase (LDH); test: Lactate dehydrogenase assay (disappearance of NADH absorbance); assay type: biochemical; conditions: 1 mM α-ketobutyrate, 180 μM NADH, absorbance at 340 nm
Experimental: Immediately prior to the start of the assay 100 μL of a reaction buffer containing 50 mM HEPES-KOH pH 7.5, 20 mM KCl, 2 mM MgCl2, 1 mM DTT, 180 μM NADH, 1 mM α-ketobutyrate (where applicable) was combined with LDH (where applicable) in 96-well plates. Lactate dehydrogenase activity was assayed by monitoring disappearance of NADH absorbance at 340 nm over time.

143B CytB cells [3] = test: Cell cycle distribution by propidium iodide flow cytometry; assay type: cell-based; conditions: 143B CytB cells without AKB compared with AKB, 78 hours
Experimental: 143B CytB cells were incubated in untreated media or media containing AKB or 100 μM adenine for 78 hours before being washed with PBS, trypsinized, pelleted, and resuspended in 500 μL PBS. Cells were fixed by adding 4.5 mL 70% ethanol and incubated at 4° C. overnight. The following day cells were pelleted and resuspended in 1 mL PBS+0.1% (v/v) Triton X-100. RNase A and then propidium iodide (PI) were added to 0.2 mg/mL and 20 μg/mL, respectively. Samples were incubated at 37° C. for 15 minutes and filtered into a flow cytometry tube. DNA content was measured by flow cytometry (BD FACS Canto II) and analyzed (FACS Diva Software).

143B CytB cells [4] = test: Amino acid and TCA cycle metabolite GC-MS analysis, 143B CytB cells; assay type: cell-based; conditions: AKB withdrawal
Experimental: 143B and 143B CytB cells were seeded at 400,000 cells/well in 6 well dishes overnight. The following day, cells were washed 2 times in PBS and media was changed to proliferation assay media with or without the indicated treatments. After 8 hours, polar metabolites were extracted using 80% methanol in water with 1 μg norvaline per sample. Soluble content was then dried under nitrogen gas. Polar samples were derivatized and measured as detailed in (Lewis). Relative metabolite abundances were determined by integrating ion peak area (Metran) and normalized to norvaline internal extraction standard.

[5] = tested on: ETC-defective cybrid cells; test: [U-13C]-L-glutamine isotope tracing of aspartate in cybrid cells; assay type: cell-based; conditions: [U-13C]-L-glutamine 7 hours, pyruvate (1 mM)
Experimental: FIG. 19. […] Cell line models of ETC dysfunction were cultured in RPMI (supplemented with uridine) with pyruvate (1 mM) or aspartate (10 mM) for 6 days. Relative cell number was determined by normalizing to the pyruvate-supplemented condition. Representative bright-field micrographs of MERRF, CYTB, and 143B ρ0 cells after 6 days in indicated conditions (right) (mean±SD, n=3, **p<0.05). […] Mass isotopomer analysis of aspartate in wild type, phenformin-treated wild type, and ETC-defective cybrid cells cultured for 7 hours with [U-^13C]-L-glutamine (middle) in the presence or absence of pyruvate (1 mM). The fraction of labeled aspartate from [U-^13C]-L-glutamine is indicated (mean±SD, for n=3, **p<0.05) (bottom). OAA, oxaloacetate. […] Immunoblot analysis of wild type, MERRF, and CYTB cybrid cells expressing sgControl and sgGOT1 (top). Raptor was used as a loading control. […] Relative cell number was determined by normalizing to sgControl expressing cell line (mean±SD, for n=3, **p<0.05). […]
Polar metabolites were extracted using 1 ml of ice-cold 80% methanol with 10 ng/ml valine-d8 as an internal standard. […] Relative quantitation of polar metabolites was performed with XCalibur QuanBrowser 2.2 (Thermo Fisher Scientific) using a 5 ppm mass tolerance and referencing an in-house library of chemical standards.

| Regeneration of NAD+ from NADH by LDH [2] | Structure (SMILES) | Consumption rate of AKB versus excretion rate of AHB (143B CytB cells [1]) | Cell cycle distribution (DNA content) (143B CytB cells [3]) | Aspartate intracellular pool size (143B CytB cells [4]) | Glutamate intracellular pool size (143B CytB cells [4]) | TCA cycle metabolite pool sizes (143B CytB cells [4]) | Aspartate synthesis in ETC-defective cybrid cells [5] |
| --- | --- | --- | --- | --- | --- | --- | --- |
| capable of regenerating NAD^+ from NADH | CCC(=O)C(=O)O [AKB, α-ketobutyrate] | the consumption rate of AKB matched the excretion rate of AHB | do not obviously arrest at a specific stage of the cell cycle | also decreased | only modestly decreased | drastically lowered |  |
|  | CC(=O)C(=O)O [pyruvate] |  |  |  |  |  | stimulated aspartate synthesis in the ETC-defective cells; also recorded: stimulates aspartate biosynthesis in cybrid cells with ETC dysfunction |
